Data as given in patent US20240229155A1, “M[…] FOR THE TREATMENT OF GLIOBLASTOMA AND OTHER CANCERS” (Duke University, priority 2021, published 2024).
Entries after “also recorded” stand apart in the source; their conditions may differ.

Columns and labels:
[1] = system: STING (TMEM173) mRNA; test: STING mRNA expression (qPCR) after decitabine treatment of GBM cell lines; format: cell-based, human; conditions: 250 nM decitabine for 5 days vs DMSO, normalized to beta actin
Description: (§1) Decitabine Treatment: Decitabine was dissolved in DMSO to produce a stock concentration of 10 mM. This stock concentration was diluted directly before each treatment at a 1:100 ratio with 1×PBS to create the working solution with a concentration of […].
Cells were seeded at density of 30,000 cells/well in 6-well plates. Each cell line was seeded in 2 mL of the same media in which they were cultured (cells were cultured in media according to ATCC). The following day (Day 0), a volume of decitabine working solution was added directly to the wells to reach the desired concentration. […]
Protocol for mRNA Expression: RNA expression was measured by converting 250 ng to lug of RNA to cDNA with the iScript cDNA conversion kit (BioRad Cat #1708891) in 20 μL total. […]
20× PrimePCR Primers targeting B-actin (BioRad #qHsa CED0036269), and TMEM173 (BioRad #qHsa CID00010565), were used. Fold change (2^(−Delta Delta Ct) was calculated using B-actin as the housekeeping gene.
Quantitative gene expression analysis: RNA/DNA were co-extracted from cells using Qiagen AllPrep DNA/RNA/miRNA Universal Kit mini kit (Qiagen) for decitabine experiments, and Quick-DNA/RNA™Miniprep Kit for baseline cell expression/methylation, following the manufacturer's protocols. RNA expression was measured by converting 250 ng to 1 μg RNA to 25 cDNA with the iScript cDNA conversion kit (BioRad). […]

[2] = system: STING pathway; test: Western blot for STING pathway activation: decitabine pretreatment followed by 2′3′-cGAMP; format: cell-based, human; conditions: for STING pathway activation (pTBK1 and pIRF3 expression) in response to cGAMP: 250 nM decitabine for 5 days, then 2′3′-cGAMP, protein at 4 h and 24 h, cell lines previously unresponsive to cGAMP
Description: (§2) Western Blots: Cells were washed 2× with ice cold 1×PBS and lysed on ice with RIPA lysis buffer, containing protease/phosphatase inhibitors, and benzonase. Lysates were spun down for 15 min 14,000×g at 4 degrees C. Protein was denatured, ran on 4-12% NuPage Bis-Tris gels in 1×MOPS buffer, and transferred to PVDF membrane. The membrane was blocked in 5% Blotting grade blocker (BioRad 170-6404) dissolved in 1×TBS 0.1% TWEEN. Primary antibody was added according to manufacturer's protocol and incubated overnight at 4° C. Membranes were then incubated with secondary HRP antibody and screened with Supersignal Pico ECL. A ChemiDoc MP (BioRad) and an iBright 1500FL imager (ThermoFisher) were used to detect the ECL signal.
Protein Isolation and Western Blotting: Cells were washed 2× with ice cold 1×PBS and lysed on ice with RIPA lysis buffer, containing protease/phosphatase inhibitors, and benzonase. Lysates were spun down for 15 min at 14,000×g at 4° C. Protein was denatured at 95° C. for 5 min, ran on 4-12% NuPage Bis-Tris gels in 1×MOPS buffer, and transferred to PVDF membrane. The membrane was blocked in 5% Blotting grade blocker (BioRad) dissolved in 1×TBS 0.1% TWEEN20. Primary antibody was added according to manufacturer's protocol and incubated overnight at 4° C. Membranes were incubated with secondary HRP antibody (Cell Signaling) and screened with Supersignal Pico ECL (ThermoFisher). A ChemiDoc MP (BioRad) and an iBright 1500FL imager (ThermoFisher) were, used to detect the ECL signal. Primary antibodies were used to the following targets: pSTING (Ser366), STING, cGAS, pTBK1 (Ser172), TBK1, pIRF3 (Ser396), IRF3, pSTAT1 (Tyr701), STAT1, IFIT1, ISG15, DNMT1, β-actin (Cell Signaling), IRF3 (Biolegend).
Cell treatment with decitabine: Decitabine (Millipore-Sigma) was dissolved in DMSO to stock concentration of 10 mM and diluted directly before each treatment in 1×PBS. Cells were seeded at 3×10^4 cells/well in 6-well plates (protein) or 1.7×10^5 cells in 10 cm dishes (RNA/DNA). Matched concentrations of DMSO was used as a control. Media was refreshed with treatment daily for 5 days. […]

[3] = system: STING; test: Western blot of STING after decitabine treatment of GBM cell lines; format: cell-based, human; conditions: 250 nM decitabine for 5 days vs DMSO
Description: (§3) Cells were seeded at density of 30,000 cells/well in 6-well plates. Each cell line was seeded in 2 mL of the same media in which they were cultured (cells were cultured in media according to ATCC). The following day (Day 0), a volume of decitabine working solution was added directly to the wells to reach the desired concentration. In the DMSO control wells, DMSO was diluted 1:100 in PBS, with the same amount of DMSO:PBS solution added as that of the decitabine condition. On days 1-5, the media was refreshed, such that the media being added to the wells contained the respective decitabine/DMSO concentration and were prepared immediately before their addition. The cells were harvested for protein on day 6.
as §2, with “A ChemiDoc MP (BioRad) and an iBright 1500FL imager (ThermoFisher) were used to detect the ECL signal.” left out

[4] = system: cGAS; test: Western blot of cGAS after decitabine treatment of GBM cell lines; format: cell-based, human; conditions: 250 nM decitabine for 5 days vs DMSO
Description: as §3
as §2, with “A ChemiDoc MP (BioRad) and an iBright 1500FL imager (ThermoFisher) were used to detect the ECL signal.” left out

[5] = system: CpG sites in a ~400 nucleotide window centered on cg16983159; test: Semi-quantitative methylation sequencing assay of bisulfite-treated glioma cell lines; format: cell-based, human; conditions: LN229 and U138 cells, decitabine vs DMSO
Description: Semi-quantitative methylation sequencing assay: Bisulfite treated DNA was PCR amplified for 40 cycles at 62° C. annealing temperature. Amplification reaction—10 μM of each primer, 25 mM MgCl2, 2.5 mM dNTPs, lx buffer, 0.7U HotStarTaq (Qiagen). Amplicons were sent to Azenta for purification and sanger sequencing with difficult template. Sequence traces were aligned. Percent methylation at the CpGs in the amplicons were estimated by comparing the C peak to the T peak.
Cell treatment with decitabine: Decitabine (Millipore-Sigma) was dissolved in DMSO to stock concentration of 10 mM and diluted directly before each treatment in 1×PBS. Cells were seeded at 3×10^4 cells/well in 6-well plates (protein) or 1.7×10^5 cells in 10 cm dishes (RNA/DNA). Matched concentrations of DMSO was used as a control. Media was refreshed with treatment daily for 5 days. Cells were harvested for protein, RNA and DNA on day 6, or treated with 2′3′-cGAMP for an additional 4 and 24 h and harvested for protein.

[6] = system: STING promoter CpG site cg16983159; test: cg16983159 site-specific methylation qPCR assay after decitabine treatment of GBM cell lines; format: cell-based, human; conditions: 250 nM decitabine for 5 days vs DMSO; GBM cell lines with high STING promoter methylation
Description: as §1
Cells were seeded at density of 30,000 cells/well in 6-well plates. Each cell line was seeded in 2 mL of the same media in which they were cultured (cells were cultured in media according to ATCC). The following day (Day 0), a volume of decitabine working solution was added directly to the wells to reach the desired concentration. In the DMSO control wells, DMSO was diluted 1:100 in PBS, with the same amount of DMSO:PBS solution added as that of the decitabine condition. […]
STING Methylation qPCR Methods: Bisulfite conversion of 25 ng to lug gDNA was done using the EpiTect Bisulfite Kit (Qiagen 59104) following manufactures protocol. […] Percent methylation was calculated as 1/(1+1/(2^-ΔCt))×100 with ΔCt=FAM −VIC. […]
cg16983159 site-specific methylation qPCR assay: A site-specific qPCR assay for measuring cg16983159 methylation was developed using the method described by Yu et al. (Yu et al., 2019). […] Percent methylation was calculated as 100%×1/1+2ΔCt where ΔCt=FAM−VIC. […]

[7] = target: T1, DNMT1 (Homo sapiens, UniProt P26358); test: Western blot of DNMT1 after decitabine treatment of GBM cell lines; format: cell-based; conditions: 250 nM decitabine for 5 days vs DMSO; GBM cell lines with high STING promoter methylation
T1 construct: Western blot analysis showing DNMT1 and STING expression following decitabine or DMSO treatment; endogenous in cells; host or cells: GBM/glioma cell lines
Description: as §3
as §2, with “A ChemiDoc MP (BioRad) and an iBright 1500FL imager (ThermoFisher) were used to detect the ECL signal.” left out

[8] = system: GBM tissue slice cultures; conditions: ex vivo GBM tissue slice cultures (Brown et al., 2021); cited from earlier work
[9] = system: cGAS/STING DNA sensing pathway; test: Response of GBM cell lines to cGAS (ISD) and STING (cGAMP) agonists, Western blot; format: cell-based, human
Description: as §2
Protein Isolation and Western Blotting: Cells were washed 2× with ice cold 1×PBS and lysed on ice with RIPA lysis buffer, containing protease/phosphatase inhibitors, and benzonase. Lysates were spun down for 15 min at 14,000×g at 4° C. Protein was denatured at 95° C. for 5 min, ran on 4-12% NuPage Bis-Tris gels in 1×MOPS buffer, and transferred to PVDF membrane. The membrane was blocked in 5% Blotting grade blocker (BioRad) dissolved in 1×TBS 0.1% TWEEN20. Primary antibody was added according to manufacturer's protocol and incubated overnight at 4° C. Membranes were incubated with secondary HRP antibody (Cell Signaling) and screened with Supersignal Pico ECL (ThermoFisher). […]

[10] = system: GBM cell suspensions; test: Cytokine secretion of CD14-separated GBM cell suspensions after 2′3′-cGAMP; format: cell-based, human; conditions: GBM cell suspensions separated by CD14; 48 h
[11] = system: GBM tissue slice cultures; test: Ex vivo GBM slice culture assay with 2′3′-cGAMP; format: cell-based, human; conditions: 5 μg/ml, 48 h, TAMC vs tumor cells
Description: GBM slice culture assay: Surgically resected, de-identified newly diagnosed GBM tissue was acquired under a Duke IRB approved protocol within hours of resection. Slice culture studies in this manuscript are extended/additional analyses of slice culture data sets reported in a prior study where the pattern of PRR signaling vs virotherapy was compared (Brown et al., 2021). A portion (˜25%) of fresh tissue was analyzed by flow cytometry to determine relative immune cell subset densities using the following flow cytometry panel after 1:20 Human Tru-Stain FcX treatment (BioLegend): CD45-BUV395 (BD Biosciences), CD14-BV421, CD33-BV510, CD49d-BV605, HLA-DR-BV786, CD31-FITC, CD3/19-BUV737, CD11b-APC, CD16-BV711, CD15-APC-fire7, and either CD155-PE or isotype control-PE antibody (all BioLegend); viability stain (7-AAD, BioLegend) was added after staining. Fresh remaining tissue was sliced into quarters, followed by slicing to −2 mm diameter fragments with a #10 scalpel (Hill-Rom). Slices were cultured in RPMI-1640 (Invitrogen) supplemented with 10% FBS (Sigma-Aldrich), 100 ng/ml EGF (R&D Biosystems); 5 μg/ml insulin (Gibco); 100 ng/ml hydrocortisone (Sigma-Aldrich). […] Supernatant cytokines were measured using the Human Antiviral Legendplex kit and Human Pro-inflammatory Chemokine kit (both BioLegend), per manufacturer's instructions. […]

T1 sequence (P26358 whole entry): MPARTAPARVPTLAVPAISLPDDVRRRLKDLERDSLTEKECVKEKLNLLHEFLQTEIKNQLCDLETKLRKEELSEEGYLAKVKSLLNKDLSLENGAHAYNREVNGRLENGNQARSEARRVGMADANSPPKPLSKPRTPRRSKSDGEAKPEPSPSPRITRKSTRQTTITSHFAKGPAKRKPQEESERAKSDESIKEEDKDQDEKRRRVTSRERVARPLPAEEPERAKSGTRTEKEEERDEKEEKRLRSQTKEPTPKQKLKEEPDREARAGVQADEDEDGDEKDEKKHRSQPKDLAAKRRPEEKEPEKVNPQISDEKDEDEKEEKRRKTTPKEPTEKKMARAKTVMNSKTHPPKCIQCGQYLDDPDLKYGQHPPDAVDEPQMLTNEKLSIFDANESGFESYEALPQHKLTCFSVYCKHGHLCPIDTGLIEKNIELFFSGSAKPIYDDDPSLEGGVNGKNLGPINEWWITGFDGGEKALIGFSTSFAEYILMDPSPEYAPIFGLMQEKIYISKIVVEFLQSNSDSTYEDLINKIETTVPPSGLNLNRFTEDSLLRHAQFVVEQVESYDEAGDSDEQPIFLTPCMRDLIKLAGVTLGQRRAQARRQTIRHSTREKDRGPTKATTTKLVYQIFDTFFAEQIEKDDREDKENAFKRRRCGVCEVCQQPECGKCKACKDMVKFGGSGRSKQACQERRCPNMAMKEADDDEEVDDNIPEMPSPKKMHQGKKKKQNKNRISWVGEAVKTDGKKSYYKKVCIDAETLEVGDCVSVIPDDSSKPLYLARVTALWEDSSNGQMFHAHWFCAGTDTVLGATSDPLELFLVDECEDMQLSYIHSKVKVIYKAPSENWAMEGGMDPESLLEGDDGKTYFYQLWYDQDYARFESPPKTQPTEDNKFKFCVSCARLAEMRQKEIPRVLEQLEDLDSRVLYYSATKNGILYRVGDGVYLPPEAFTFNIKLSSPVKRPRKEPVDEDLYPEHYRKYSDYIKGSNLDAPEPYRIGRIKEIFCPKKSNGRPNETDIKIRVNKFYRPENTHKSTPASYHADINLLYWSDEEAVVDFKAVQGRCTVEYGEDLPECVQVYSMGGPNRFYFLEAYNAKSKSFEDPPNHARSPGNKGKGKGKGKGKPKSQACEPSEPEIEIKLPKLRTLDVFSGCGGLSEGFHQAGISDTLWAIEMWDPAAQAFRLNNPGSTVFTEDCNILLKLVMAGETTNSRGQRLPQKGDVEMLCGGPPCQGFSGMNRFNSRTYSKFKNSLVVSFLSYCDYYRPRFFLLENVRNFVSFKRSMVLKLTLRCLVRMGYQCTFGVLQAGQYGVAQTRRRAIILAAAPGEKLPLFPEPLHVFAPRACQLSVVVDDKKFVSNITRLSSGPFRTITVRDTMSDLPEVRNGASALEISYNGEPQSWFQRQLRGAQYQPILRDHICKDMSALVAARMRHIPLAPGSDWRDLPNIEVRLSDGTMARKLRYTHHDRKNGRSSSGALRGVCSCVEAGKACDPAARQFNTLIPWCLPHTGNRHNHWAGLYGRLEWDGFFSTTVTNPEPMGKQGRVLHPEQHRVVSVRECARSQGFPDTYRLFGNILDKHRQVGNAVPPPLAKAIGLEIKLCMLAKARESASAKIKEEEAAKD

For `Nc1ncn([C@H]2C[C@H](O)[C@@H](CO)O2)c(=O)n1` [Decitabine, 5-azadeoxycytidine], the “STING mRNA expression” value [1] was “increased”, the “STING pathway activation (pTBK1 and pIRF3 expression) in response to cGAMP” value [2] was “restores STING signaling” and the “STING pathway activation (pTBK1 and pIRF3 expression) in response to cGAMP” value ([2]; listed as decitabine) was “reactivation or enhancement of the pathway”. The “markers of downstream IFN activation (pSTAT1, IFIT1, ISG15)” value ([2]; decitabine pretreatment for 5 days followed by cGAMP) was “induced”, the STING protein expression [3] was “increased” and the “cGAS expression (Western blot)” value [4] was “induces”. For the same compound, the “methylation state of CpG sites around cg16983159 (bisulfite sequencing)” value [5] was “cg16983159 and upstream CpG sites are demethylated, while downstream sites are not”, the “STING cg16983159 methylation” value [6] was “decreased” and the “DNMT1 expression (Western blot)” value [7] was “significant suppression; also recorded: suppressed”.
For `Nc1nc2c(ncn2[C@@H]2O[C@@H]3COP(=O)(O)O[C@H]4[C@@H](O)[C@H](n5cnc6c(N)ncnc65)O[C@@H]4COP(=O)(O)O[C@@H]2[C@@H]3O)c(=O)[nH]1` [cGAMP, 2′3′-cGAMP], the CXCL10 induction [8] is listed as “induced”, the “type I IFNs induction” value [8] is listed as “induced” and the “downstream response (pTBK1, pIRF3) to STING agonist” value ([9]; A172 cell line, high baseline STING expression) is listed as “strong downstream response”. For the same compound, the “downstream response (pTBK1, pIRF3) to STING agonist” value ([9]; U138MG cell line, no STING expression) was “failed to activate pTBK1 or pIRF3”, the CXCL10 induction [10] was “occurred only in CD14+ containing glioma cell suspensions” and the TNF induction [10] was “occurred only in CD14+ containing glioma cell suspensions”. The “IFIT1 induction (flow cytometry)” value [11] was “induced selectively in TAMC”.
